Measurements taken from patent US20140314867A1, “VITAMIN K2 MICROSPHERES” (Medical and Pharmaceutical Industry Technology and …, priority 2013, published 2014).

Tests used:
Type in all cases: cell-based, human
[1] = test system: MG-63 cells; assay: Cell viability analysis (MTT), cell number of co-cultured MG-63 cells
Protocol: 0.0001 g, 0.0005 g, 0.005 g, and 0.05 g of VK2 was fine weighed and sterilized by UV light in a sterile hood overnight, then added into 50 ml centrifuge tubes. 50 ml of H-DMEM containing 10% FBS was then added to prepare cell culture medium with different VK2 concentrations: 0 mg/mL, 0.002 mg/mL, 0.01 mg/mL, 0.1 mg/mL, and 1 mg/mL. H-DMEM containing 10% FBS was used to adjust the concentration of MG-63 cell solution to 1×10^4 cells/ml. 1 ml/well of cell solution was seeded to a 24-well plate and incubated in an incubator for 1 day to make cells adhere. Then, the culture medium was removed, 1 ml/well of cell culture medium with different VK2 concentration were added respectively and incubated for 1, 3, and 7 days. Cell viability analysis (MTT) and alkaline phosphatase activity assay (ALP) were conducted. Cell morphology was observed by an inverted microscope and recorded in photographs. 0.01 g of 0%, 0.01%, 0.1%, and 1.0% VK2MS was fine weighed and sterilized by UV light in a sterile hood overnight, then added into 50 ml centrifuge tubes. 50 ml of H-DMEM containing 10% FBS was then added to prepare cell culture medium with different VK2 concentrations. H-DMEM containing 10% FBS was used to adjust the concentration of MG-63 cell solution to 1×10^4 cells/ml. 1 ml/well of cell solution was seeded to a 24-well plate and incubated in an incubator for 1 day to make the cells adhere. Then, the culture medium was removed, 1 ml/well of cell culture medium with different VK2 concentration were added respectively and incubated for 1, 3, and 7 days. In addition, the cell culture medium without microspheres (MS) was added 1 ml/well and incubated for 1, 3, and 7 days as control groups. Subsequently, cell viability analyse (MTT) and alkaline phosphatase activity assays (ALP) were conducted. Cell morphology was observed by an inverted microscope and recorded by photographs. First, MTT was prepared as a 5 mg/mL reaction solution by PBS, then filtered by a 0.22 μm filter. 10% MTT reagent was prepared by H-DMEM, and then stored in the dark. After being cultured for 1 day, the cell culture medium was removed from the 24-well cell culture plate. The 24-well cell culture plate was washed twice by PBS. After the PBS was removed, 1 ml/well of 10% MTT reagent was added to the culture plate and reacted in an incubator (37° C., 5% CO2) in the dark for 4-5 hours. Purple crystal particles were produced at the bottom of culture plate after the reaction. The reactive solution was removed and 350 μl/well of DMSO solution was added. After being mixed, […] of dissolved solution was suctioned to a 96-well plate and the absorbance at 570 nm was detected by an ELISA reader. The reference wavelength was set as 650 nm. A cell standard curve can be made to reckon the cell number. The cell solution was adjusted to have a concentration of 5000, 10000, 25000, 50000, 75000, and 100000 cells/ml by H-DMEM containing 10% FBS then seeded into a 24-well plate, respectively. After 1 day, after the cells were adhered, an MTT cell viability analysis was conducted. Absorbance and cell numbers were used to make a standard curve, such that the cell number could be reckoned from the absorbance. A growth curve of MG-63 cells was made first, and then the cell growth rate could be obtained by dividing the cell viability by that of the control group which was detected by the MTT assay. The result shown in FIG. 9A can be obtained by converting the data from ELISA to a cell number according to the cell growth curve. In FIG. 9A, it is observed that the cell number of MG-63 co-cultured with VK2 is apparently lower than that of the control group. Moreover, the effect of cell growth inhibition becomes obvious with the increasing concentration of VK2. […]

[2] = test system: MG-63 cells; assay: Alkaline phosphatase (ALP) activity test in co-cultured MG-63 cells; details: 0.02 mg/mL
[3] = test system: MG-63 cells; assay: as above
Protocol: 0.0001 g, 0.0005 g, 0.005 g, and 0.05 g of VK2 was fine weighed and sterilized by UV light in a sterile hood overnight, then added into 50 ml centrifuge tubes. 50 ml of H-DMEM containing 10% FBS was then added to prepare cell culture medium with different VK2 concentrations: 0 mg/mL, 0.002 mg/mL, 0.01 mg/mL, 0.1 mg/mL, and 1 mg/mL.
H-DMEM containing 10% FBS was used to adjust the concentration of MG-63 cell solution to 1×10^4 cells/ml. 1 ml/well of cell solution was seeded to a 24-well plate and incubated in an incubator for 1 day to make cells adhere. Then, the culture medium was removed, 1 ml/well of cell culture medium with different VK2 concentration were added respectively and incubated for 1, 3, and 7 days. Cell viability analysis (MTT) and alkaline phosphatase activity assay (ALP) were conducted. Cell morphology was observed by an inverted microscope and recorded in photographs. […]
The measurement of ALP is described below. After being cultured for 1 day, the cell culture medium was removed from the 24-well cell culture plate. Then, the 24-well cell culture plate was washed twice by PBS. After the PBS was removed, 200 μl/well of ALP extraction reagent pNPP65 (p-Nitrophenylphosphate) was added to the 24-well culture plate and reacted in an incubator (37° C., 5% CO2) in the dark for 30 minutes. Then, 50 μl of 1N sodium hydroxide was added to stop the reaction. 250 μl/well of supernatant was suctioned to a 96-well plate to detect the OD value at 405 nm by an ELISA reader. Activity of alkaline phosphatase (ALP) can be calculated by the formula below: […]
In this formula, A is the absorbance of a sample at 405 nm; Vt is the total reaction volume, 0.25 ml; Vs is the sample volume, 0.05 ml; t is the reaction time after adding pNPP65 (p-Nitrophenylphosphate), 30 minutes; c is mmol extinction coefficient of pNPP65 (p-Nitrophenylphosphate), 18.6 mM^−1 cm^−1; 1 is the optical path of the cuvette, 1 cm; 1000 is to convert the U/ml to U/l.

## vitamin K2 [VK2]
[1]; 0.002 mg/mL of VK2, day 1
  cell number: 4.1±0.1 ×10^4 cells
[1]; 0.002 mg/mL of VK2, day 3
  cell number: 6.6±0.1 ×10^4 cells
[1]; 0.002 mg/mL of VK2, day 7
  cell number: 14.7±0.1 ×10^4 cells
[1]; 1 mg/mL of VK2, day 1
  cell number: 2.0±0.0 ×10^4 cells
[1]; 1 mg/mL of VK2, day 3
  cell number: 5.0±0.1 ×10^4 cells
[1]; 1 mg/mL of VK2, day 7
  cell number: 2.1±0.1 ×10^4 cells
[1]; MG-63 co-cultured with VK2, 1, 3, 7 days
  effect on cell proliferation: inhibits cell proliferation
[2]
  effect on ALP activity of cells: enhance the ALP activity of cells
[3]; 0.002 mg/mL of VK2
  ALP value compared with control group: higher than that of the control group
[3]; 0.002 mg/mL of VK2, day 1
  ALP activity of a single cell: 96.7±1.1 U/L-30 min-10^4 cells
  ALP value: 399.9±3.3 U/L-30 min
[3]; 0.002 mg/mL of VK2, day 3
  ALP activity of a single cell: 62.4±0.9 U/L-30 min-10^4 cells
  ALP value: 410.7±2.7 U/L-30 min
[3]; 0.002 mg/mL of VK2, day 7
  ALP value: 377.4±1.6 U/L-30 min
[3]; 0.01 mg/mL of VK2, day 1
  ALP activity of a single cell: 46.4±0.4 U/L-30 min-10^4 cells
  ALP value: 111.0±0.7 U/L-30 min
[3]; 0.01 mg/mL of VK2, day 3
  ALP activity of a single cell: 19.8±0.1 U/L-30 min-10^4 cells
[3]; 0.01 mg/mL of VK2, day 7
  ALP activity of a single cell: 8.2±0.0 U/L-30 min-10^4 cells
[3]; 0.1 mg/mL of VK2, day 3
  ALP value: 112.2±0.3 U/L-30 min
[3]; 0.1 mg/mL of VK2, day 7
  ALP value: 100.6±0.0 U/L-30 min
[3]; 1.0 mg/mL of VK2, day 7
  ALP activity of a single cell: 70.4±1.7 U/L-30 min-10^4 cells
